According to ChEMBL document CHEMBL4699447, “Initial Analysis of the Arylomycin D Antibiotics” (2020):

How the values were obtained:
Type in all cases: functional
[1] = system: Staphylococcus epidermidis; assay: Antimicrobial activity against Staphylococcus epidermidis RP62A assessed as reduction in microbial growth after 24 hrs by CLSI based broth microdilution method
Escherichia coli [2] = assay: Antimicrobial activity against Escherichia coli K-12 assessed as reduction in microbial growth after 24 hrs by CLSI based broth microdilution method
Staphylococcus aureus = assay: Antimicrobial activity against methicillin-resistant Staphylococcus aureus USA300 assessed as reduction in microbial growth after 24 hrs by CLSI based broth microdilution method
Escherichia coli [3] = assay: Antimicrobial activity against Escherichia coli IMP BAS901 assessed as reduction in microbial growth after 24 hrs by CLSI based broth microdilution method
Yersinia pestis = assay: Antimicrobial activity against Yersinia pestis KIM6+ assessed as reduction in microbial growth after 24 hrs by CLSI based broth microdilution method

In the case of `CCCCCCCCCCCCCCCC(=O)NCCC(=O)N[C@@H](CS(=O)(=O)O)C(=O)N(C)[C@@H]1C(=O)N[C@@H](C)C(=O)N[C@H](C(=O)O)Cc2ccc(O)c(c2)-c2cc1ccc2O`, the MIC [1] is reported as 4 µg/mL, the MIC (Escherichia coli [2]) is reported as > 64 µg/mL and the MIC (Staphylococcus aureus) is reported as 16 µg/mL. For the same compound, the MIC (Escherichia coli [3]) was > 64 µg/mL and the MIC (Yersinia pestis) was 2 µg/mL.
For `CCCCCCCCCCCCCCCC(=O)NCCC(=O)N[C@@H](CS(=O)(=O)O)C(=O)N(C)[C@@H]1C(=O)N[C@@H](C)C(=O)N[C@H](C(=O)O)Cc2ccc(OS(=O)(=O)O)c(c2)-c2cc1cc(OS(=O)(=O)O)c2O[C@@H]1O[C@@H](C)[C@H](O)[C@@H](O)[C@H]1O`, the MIC [1] was > 64 µg/mL, the MIC (Staphylococcus aureus) was > 64 µg/mL and the MIC (Escherichia coli [3]) was > 64 µg/mL. For the same compound, the MIC (Yersinia pestis) was > 64 µg/mL.
In the case of `CCCCCCCCCCCCCCCC(=O)NCCC(=O)N[C@H](CS(=O)(=O)O)C(=O)N(C)[C@@H]1C(=O)N[C@@H](C)C(=O)N[C@H](C(=O)O)Cc2ccc(OS(=O)(=O)O)c(c2)-c2cc1cc(OS(=O)(=O)O)c2O[C@@H]1O[C@@H](C)[C@H](O)[C@@H](O)[C@H]1O`, the MIC [1] is reported as > 64 µg/mL, the MIC (Staphylococcus aureus) is reported as > 64 µg/mL and the MIC (Escherichia coli [3]) is reported as > 64 µg/mL. For the same compound, the MIC (Yersinia pestis) was > 64 µg/mL.
`CCCCCCCCCCCCCCCC(=O)N(C)[C@H](CO)C(=O)N[C@H](C)C(=O)NCC(=O)N(C)[C@@H]1C(=O)N[C@@H](C)C(=O)N[C@H](C(=O)O)Cc2ccc(OS(=O)(=O)O)c(c2)-c2cc1cc(OS(=O)(=O)O)c2O[C@@H]1O[C@@H](C)[C@H](O)[C@@H](O)[C@H]1O` was tested, and the MIC [1] was > 64 µg/mL, the MIC (Staphylococcus aureus) was > 64 µg/mL and the MIC (Escherichia coli [3]) was > 64 µg/mL. The MIC (Yersinia pestis) was > 64 µg/mL.
In the case of `CCCCCCCCCCCCCCCC(=O)NCCC(=O)N[C@@H](CS(=O)(=O)O)C(=O)N(C)[C@@H]1C(=O)N[C@@H](C)C(=O)N[C@H](C(=O)O)Cc2ccc(O)c(c2)-c2cc1cc(O)c2O[C@@H]1O[C@@H](C)[C@H](O)[C@@H](O)[C@H]1O`, the MIC [1] is reported as 8 µg/mL, the MIC (Escherichia coli [2]) is reported as > 64 µg/mL and the MIC (Staphylococcus aureus) is reported as 32 µg/mL. It also gave an MIC (Escherichia coli [3]) of 64 µg/mL and an MIC (Yersinia pestis) of 4 µg/mL.
For `CCCCCCCCCCCCCCCC(=O)N(C)[C@H](CO)C(=O)N[C@H](C)C(=O)NCC(=O)N(C)[C@@H]1C(=O)N[C@@H](C)C(=O)N[C@H](C(=O)O)Cc2ccc(O)c(c2)-c2cc1ccc2O` [ARYLOMYCIN C16], the MIC [1] was 0.25 µg/mL, the MIC (Escherichia coli [2]) was > 64 µg/mL and the MIC (Staphylococcus aureus) was > 64 µg/mL. For the same compound, the MIC (Escherichia coli [3]) was 16 µg/mL.
